Source: ChEMBL document CHEMBL1201862, “PubChem BioAssay data set” (2004)
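The compound was tested at five concentrations on cells cultured in 96-well plates, with a 48-hour exposure period. GI50: concentration for 50% inhibition of growth.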 Calls of active or inactive are those of the source. No stated cut-off is given here; in the data, active = GI50 up to about 1.1 µM and inactive = higher.

Experiments:
Assay in all cases: growth of human tumour cells (NCI), 48 h
786-0 = tested on: 786-0
A498 = tested on: A498
A549 = tested on: A549
ACHN = tested on: ACHN
BT-549 = tested on: BT-549
HCC 2998 = tested on: HCC 2998
HCT-15 = tested on: HCT-15
HL-60 = tested on: HL-60
HOP-92 = tested on: HOP-92
IGROV-1 = tested on: IGROV-1
LXFL 529 = tested on: LXFL 529
NCI-H522 = tested on: NCI-H522
OVCAR-8 = tested on: OVCAR-8
SF-295 = tested on: SF-295
SF-539 = tested on: SF-539
SK-MEL-5 = tested on: SK-MEL-5
SN12C = tested on: SN12C
SNB-19 = tested on: SNB-19
SNB-75 = tested on: SNB-75
U-251 = tested on: U-251

Compound	GI50 (786-0)	GI50 (A498)	GI50 (A549)	GI50 (ACHN)	GI50 (BT-549)	GI50 (HCC 2998)	GI50 (HCT-15) [µM]	GI50 (HL-60)	GI50 (HOP-92)	GI50 (IGROV-1)	GI50 (LXFL 529)	GI50 (NCI-H522)	GI50 (OVCAR-8)	GI50 (SF-295)	GI50 (SF-539)	GI50 (SK-MEL-5)	GI50 (SN12C)	GI50 (SNB-19)	GI50 (SNB-75)	GI50 (U-251)
CCN(CC)CCNC(=O)c1nn(-c2ccc(Cl)cc2)c2c1CCc1cc(OC)ccc1-2	3.52 µM (inactive)	8.61 µM (inactive)	8.22 µM (inactive)	11.4 µM (inactive)	17.4 µM (inactive)	2.34 µM (inactive)	2.92	2.7 µM (inactive)	5.51 µM (inactive)	12.8 µM (inactive)	4.74 µM (inactive)	4.52 µM (inactive)	12.3 µM (inactive)	3.74 µM (inactive)	4.21 µM (inactive)	1.74 µM (inactive)	10.4 µM (inactive)	10.5 µM (inactive)	5.21 µM (inactive)	5.43 µM (inactive)
COc1ccc(CN2C(=O)[C@@H]3Cc4c(OC)c(C)c(OC)c(OC)c4[C@H](/C2=C\c2cc(OC)c(OC)c(C)c2OC)N3C(=O)OC(C)C)cc1	> 100 µM (inactive)	27.3 µM (inactive)	58.9 µM (inactive)	> 100 µM (inactive)		22.4 µM (inactive)		5.53 µM (inactive)	8.04 µM (inactive)	> 100 µM (inactive)	7.24 µM (inactive)	8.75 µM (inactive)	> 100 µM (inactive)	96.2 µM (inactive)	> 100 µM (inactive)	29.4 µM (inactive)	> 100 µM (inactive)	> 100 µM (inactive)	> 100 µM (inactive)	> 100 µM (inactive)
CC1CC2(CCC1OCc1ccccc1)OCCO2 (stereo not drawn)	> 100 µM (inactive)	> 100 µM (inactive)	> 100 µM (inactive)			> 100 µM (inactive)	> 100	> 100 µM (inactive)	> 100 µM (inactive)	> 100 µM (inactive)	> 100 µM (inactive)	> 100 µM (inactive)	> 100 µM (inactive)	> 100 µM (inactive)	> 100 µM (inactive)	> 100 µM (inactive)	> 100 µM (inactive)	> 100 µM (inactive)		> 100 µM (inactive)
CCOC(=O)N1CCN(P(=O)(Nc2ccc3[nH]c(NC(=O)OC)nc3c2)Oc2ccccc2)CC1 (stereo not drawn)	> 100 µM (inactive)	> 100 µM (inactive)	> 100 µM (inactive)	> 100 µM (inactive)		> 100 µM (inactive)	> 100	> 100 µM (inactive)	> 100 µM (inactive)	> 100 µM (inactive)	> 100 µM (inactive)	37.5 µM (inactive)	> 100 µM (inactive)				> 100 µM (inactive)		77.6 µM (inactive)	> 100 µM (inactive)
Nn1c(-c2cccc(Cl)c2)nc2ccccc2c1=O	> 100 µM (inactive)	> 100 µM (inactive)	> 100 µM (inactive)	> 100 µM (inactive)		> 100 µM (inactive)	> 100	> 100 µM (inactive)	> 100 µM (inactive)	> 100 µM (inactive)	> 100 µM (inactive)	> 100 µM (inactive)	> 100 µM (inactive)	> 100 µM (inactive)	> 100 µM (inactive)	> 100 µM (inactive)	> 100 µM (inactive)	> 100 µM (inactive)	> 100 µM (inactive)	> 100 µM (inactive)
COc1ccc2c(c1)CCC1C3(CCCC21C)OCCO3 (stereo not drawn)	18.5 µM (inactive)	29.6 µM (inactive)	26.9 µM (inactive)	23.3 µM (inactive)		22.8 µM (inactive)	17.1	15.9 µM (inactive)	15.1 µM (inactive)	28.8 µM (inactive)	18.2 µM (inactive)	15.7 µM (inactive)	17.5 µM (inactive)	19.3 µM (inactive)	12.9 µM (inactive)	15.6 µM (inactive)	16.3 µM (inactive)	28.9 µM (inactive)	19.8 µM (inactive)	15.9 µM (inactive)
COC(=O)C1C(=O)NC2(C)CC1c1ccccc1O2 (stereo not drawn)	> 100 µM (inactive)	> 100 µM (inactive)	> 100 µM (inactive)	> 100 µM (inactive)		> 100 µM (inactive)	> 100	> 100 µM (inactive)	> 100 µM (inactive)	> 100 µM (inactive)	> 100 µM (inactive)	> 100 µM (inactive)	> 100 µM (inactive)	> 100 µM (inactive)	> 100 µM (inactive)	> 100 µM (inactive)	> 100 µM (inactive)	> 100 µM (inactive)	62.7 µM (inactive)	> 100 µM (inactive)
Cc1cccc2[s+]snc12	> 76.9 µM (inactive)	> 100 µM (inactive)	> 100 µM (inactive)	63.5 µM (inactive)		> 100 µM (inactive)	> 47.4	18 µM (inactive)	23.1 µM (inactive)	> 100 µM (inactive)	36.1 µM (inactive)	18.4 µM (inactive)	> 45 µM (inactive)	> 100 µM (inactive)	> 100 µM (inactive)	> 100 µM (inactive)	> 69.2 µM (inactive)	> 100 µM (inactive)	> 100 µM (inactive)	> 100 µM (inactive)
CN(C)C(=S)/N=c1\ssc(=S)n1C1CCCCC1	17.1 µM (inactive)	37.2 µM (inactive)	22.8 µM (inactive)	35.9 µM (inactive)		37.1 µM (inactive)	33.1	11.2 µM (inactive)	35.2 µM (inactive)	98.9 µM (inactive)	13.2 µM (inactive)	13.1 µM (inactive)	21.4 µM (inactive)	60.5 µM (inactive)	20.7 µM (inactive)	12.4 µM (inactive)	29.4 µM (inactive)	57.7 µM (inactive)	42.7 µM (inactive)	17 µM (inactive)
Nc1ncnc2c1ncn2C1CC(O)C(CO)O1 (stereo not drawn)	> 100 µM (inactive)	> 100 µM (inactive)	> 100 µM (inactive)	> 100 µM (inactive)		> 100 µM (inactive)	> 100	> 100 µM (inactive)	> 100 µM (inactive)	> 100 µM (inactive)	> 100 µM (inactive)	> 100 µM (inactive)	> 100 µM (inactive)	> 100 µM (inactive)	> 100 µM (inactive)	> 100 µM (inactive)	> 100 µM (inactive)	> 100 µM (inactive)	> 100 µM (inactive)	> 100 µM (inactive)
CC(=O)CC(=O)OC1CC(C)CCC1C(C)C (stereo not drawn)	> 100 µM (inactive)	> 100 µM (inactive)	35.3 µM (inactive)	> 100 µM (inactive)		41.4 µM (inactive)	38.7	18.8 µM (inactive)	35 µM (inactive)	76.6 µM (inactive)	89.5 µM (inactive)	39.7 µM (inactive)	72.8 µM (inactive)	80.7 µM (inactive)	36.8 µM (inactive)	42.2 µM (inactive)	> 100 µM (inactive)	78.5 µM (inactive)	73.3 µM (inactive)	47 µM (inactive)
Cc1[nH]c2ccccc2c1C(=O)CC1(O)C(=O)Nc2ccccc21 (stereo not drawn)	> 100 µM (inactive)	> 100 µM (inactive)	> 100 µM (inactive)	> 100 µM (inactive)		> 100 µM (inactive)	> 100	> 100 µM (inactive)	> 100 µM (inactive)	> 100 µM (inactive)	> 100 µM (inactive)			> 100 µM (inactive)	> 100 µM (inactive)	> 100 µM (inactive)	> 100 µM (inactive)	> 100 µM (inactive)	> 100 µM (inactive)	> 100 µM (inactive)
O=C(/C=C/c1ccccc1Cl)c1ccc(Cl)c(Cl)c1	16.3 µM (inactive)	15.9 µM (inactive)	19.5 µM (inactive)	15.3 µM (inactive)		15.5 µM (inactive)	15.7	25.8 µM (inactive)	26.9 µM (inactive)	12.4 µM (inactive)	16.1 µM (inactive)	17.3 µM (inactive)	17.7 µM (inactive)	17.3 µM (inactive)	18.2 µM (inactive)	18.9 µM (inactive)	> 100 µM (inactive)	16.4 µM (inactive)	13 µM (inactive)	17.3 µM (inactive)
O=C(CCc1nnc2s/c(=C\c3ccc(Cl)c(Cl)c3)c(=O)n12)Nc1ccc(Cl)c(Cl)c1	> 100 µM (inactive)	39 µM (inactive)	> 100 µM (inactive)	> 100 µM (inactive)		> 100 µM (inactive)	> 100	22.8 µM (inactive)	86.7 µM (inactive)	44.2 µM (inactive)	88.1 µM (inactive)	25.1 µM (inactive)	20.4 µM (inactive)	46.1 µM (inactive)	51.8 µM (inactive)	43.9 µM (inactive)	> 100 µM (inactive)	45 µM (inactive)	58.3 µM (inactive)	36.9 µM (inactive)
